Conditions: irinotecan i.v. or orally administered; Ces2^–/– vs wild-type mice; data not shown

## CCc1c2c(nc3ccc(O)cc13)-c1cc3c(c(=O)n1C2)COC(=O)[C@]3(O)CC [SN-38]
  effect of mCes2 cluster knockout on plasma levels: no significant effect

From PMC11845761, “Intestinal human carboxylesterase 2 (CES2) expression rescues drug metabolism and most metabolic syndrome phenotypes in global Ces2 cluster knockout mice” (Acta Pharmacologica Sinica, 2024)
